Assay results from US5741782A, “Antibiotic cocktail and method of use” (Cryolife, Inc., priority 1996, dated 1998).
Values joined by “and” are separate entries in the source; they are usually repeats but may differ in a detail not shown here. Equal entries are not always repeated. Where two headings read alike, the source gives them in different places.

Experiments:
[1] = system: valve leaflet fibroblasts; settings: for percent of control: Example 2; for AVG incorporation of 3H-glycine: Example 10
Protocol: (§1) Preferably, however, the tissue is incubated with a radioactively-labeled amino acid, and the incorporation of the amino acid into proteins is monitored by counting disintegrations per minute (DPM) per unit of tissue.
(§2) All of the valve leaflet halves were incubated for 48 hours at 37° C. in the antibiotic cocktails and then cryopreserved.
(§3) Experiment #2: Paired halves of leaflets were again used. One half was used as a fresh control and immediately labelled with ^3 H-glycine to determine leaflet fibroblast viability (see below). […] The antibiotic-treated leaflets were incubated for 48 hours at 37° C. in the antibiotic cocktails and then cryopreserved.
(§4) A 1.8 ml Nalge cryovial was used to contain the leaflet tissue. The freezing program takes the tissue from +4° to -80° C. in approx 80 to 90 minutes.
(§5) The valve leaflet halves were stored in liquid nitrogen freezer for at least two days, but no more than three weeks, before being thawed.
(§6) The valve leaflet halves were thawed by removing the valve tissue to be thawed from the liquid nitrogen freezer. As quickly as possible, the tissue was transferred to a 37° C. waterbath. When all of the ice had dissolved (about 2 minutes), the cryovial was transferred to a hood, and 4 ml of room temperature lactated Ringers plus 5% dextrose (DBLR) was dispensed into a 5-ml snap-cap tube (Falcon) for each cryovial being thawed. The exterior of the cryovial was rinsed with 70% isopropanol and any excess wiped away before opening. Using sterile forceps, the leaflet tissue was transferred into the tube containing the DBLR. The tissue was allowed to remain in D5LR for 5 minutes.
(§7) Tissue viability was assessed by the measurement of ^3 H-glycine incorporation into proteins as follows. The thawed valve leaflet halves were placed in snap-cap tubes (Falcon) containing 16 μCi of tritiated-glycine (DuPont New England Nuclear) in 1 ml of DMEM supplemented with 15 μg/ml ascorbic acid. Radiolabeled glycine incorporation was determined after a 48 hour incubation at 37° C. in an atmosphere consisting of 5% carbon dioxide in air. The tissue was then washed four times with phosphate-buffered saline, dehydrated with ethanol and ether, air dried and weighed. The tissue samples were then rehydrated with 200 μl of water and solubilized by the addition of 500 μl of 1M NaOH. After incubation at 60° C. for 1 hour, the samples were sonicated twice for 20-seconds. […] The filter discs were dried, and the proteins precipitated by addition of ice-cold 10% trichloroacetic acid for 30 minutes. This was followed by five ethanol rinses, two ether rinses, and drying. The discs were then placed in 10 ml of scintillation fluid (Cytoscint ES, ICN Biomedicals, Inc., Irvine, Calif.). Tritium incorporation was measured by scintillation counting using a LS1701 (Beckman Instruments, Inc., Palo Alto, Calif.).
(§8) The incorporation of ^3 H-glycine into proteins is expressed in disintegrations per minute (DPM) per mg of dry tissue.

[2] = system: Candida albicans ATCC strain 14053; test: survival of Candida albicans in antifungal cocktails (membrane filtration enumeration); assay type: cell-based; settings: Example 14; for fungicidal activity (in words): Tube B, fluconazole 100 μg/ml, amphotericin B 0.6 μg/ml, or fluconazole 100 + amphotericin B 0.3 μg/ml; for surviving yeast, Tube B: Tube B (734 CFU/ml at time zero), 35° C.
Protocol: The Candida albicans used in these studies was ATCC strain 14053 (American Type Culture Collection). The purity of the strain was verified before and after cultivation.
The test organism was cultured on a Sabouraud Agar Plate, streaked for isolation, and incubated at 35° C. for 24 hours. A single colony was removed using a sterile cotton swab and placed in 5.0 ml of sterile saline. The mixture was vortexed, and dilutions were made and compared to a standard turbidity chart until the turbidity matched a 0.5 turbidity standard (a 0.5 MacFarland turbidity standard suspension). Serial dilutions were made as follows: (1) 0.5 ml of the 0.5 MacFarland turbidity standard was added to 4.5 ml of sterile normal saline (Tube A; expected population 10^5 cfu/ml); (2) 0.1 ml of the Tube A suspension was added to 9.9 ml of sterile normal saline (Tube B; expected population 10^3 cfu/ml); and (3) 0.1 ml of the Tube B suspension was added to 9.9 ml of sterile normal saline (Tube C; expected population 10 cfu/ml). Each serial dilution was vortexed for 30 seconds before the next transfer.
Tubes B and C were challenged with these cocktails. Each cocktail (24.0 ml) was placed into a sterile 115 ml plastic cup, and 1.0 ml of the yeast population from Tube B or C was added. The cups were mixed gently, capped and placed in the incubator for 24 hours at 35° C. After the prescribed incubation period, 1.0 ml of the yeast-cocktail mixture was removed from each tube and processed to obtain an enumeration of the surviving yeast organisms. The remaining mixture was placed back into the incubator and incubated for an additional 24 hours. After this incubation period, the cups were removed, swirled gently and 1.0 ml was removed, and the above process was repeated.
Enumeration of the yeast was performed as follows; each sample was tested in duplicate, One milliliter (1.0 ml) of year suspension was added to the top assembly of a sterile disposable filter apparatus which contained 99 ml of sterile normal saline. The contents were mixed gently and filtered. The filter pad was removed aseptically using sterile disposable forceps and placed on Sabouraud Agar plates. The plates were incubated at 35° C. for 24 hours, and the colonies were then counted.

[3] = system: cells responsible for allograft longevity in patients; settings: literature: Hu et al., Lange and Hopkins, McNally and Brockbank; cited from earlier work
yeast isolates = test: yeast challenge of antibiotic cocktails, overall; assay type: cell-based; settings: for fungicidal activity (in words): Example 16, ten donor tissue isolates, 24 hours; for antiyeast activity at doses which maintain tissue viability (in words): summary of Examples 14 and 15
Source text: The ten yeast isolates tested were:

bacteria = settings: general statement; cited from earlier work
in vitro = settings: human, heart valve leaflets, AVG % CONTRL, Example 3
Protocol: as §1, §2, §3, §4, §5, §6, §7, §8

[4] = system: valve leaflet fibroblasts; test: cells; settings: Homo sapiens, Fibroblast, read-out: AVG percent of control, Example 2
Protocol: as §1, §2, §3, §4, §5, §6, §7, §8

Compound: C[C@@H]1[C@H](O)[C@@H](C)/C=C/C=C/C=C/C=C/C=C/C=C/C=C/[C@H](O[C@@H]2O[C@H](C)[C@@H](O)[C@H](N)[C@@H]2O)C[C@@H]2O[C@](O)(C[C@@H](O)C[C@@H](O)[C@H](O)CC[C@@H](O)C[C@@H](O)CC(=O)O[C@H]1C)C[C@H](O)[C@H]2C(=O)O [Amphotericin B, amphotericin B]
- average viability (in words) ([1]; Example 5, 0.3 μg/ml amphotericin B in the antibiotic mixture): average viability greater than the control
- MEAN incorporation of 3H-glycine ([1]; Example 11, 0.3 μg/ml amphotericin B, 24 hours): 4965 DPM/mg
- MEAN incorporation of 3H-glycine ([1]; Example 11, 0.6 μg/ml amphotericin B, 24 hours): 4960 DPM/mg
- MEAN incorporation of 3H-glycine ([1]; Example 11, 1.0 μg/ml amphotericin B, 24 hours): 4914 DPM/mg
- MEAN incorporation of 3H-glycine ([1]; Example 11, 2.0 μg/ml amphotericin B, 24 hours): 4236 DPM/mg
- MEAN incorporation of 3H-glycine ([1]; Example 11, 3.0 μg/ml amphotericin B, 24 hours): 4452 DPM/mg
- fungicidal activity (in words) [2]: fungicidal
- toxicity (in words) [3]: toxic to the cells responsible for allograft longevity in patients
- fungicidal activity (in words) (yeast isolates): shows greater fungicidal activity
- antiyeast activity at doses which maintain tissue viability (in words) (yeast isolates): Neither amphotericin B, nor fluconazole, alone substantially inhibits yeast growth at doses which substantially maintain tissue viability

Compound: C[C@@H](O)[C@H]1C(=O)N2C(C(=O)O)=C(SCCN=CN)C[C@H]12 [Imipenem, imipenem]
- MEAN incorporation of 3H-glycine ([1]; Example 8, 48 μg/ml imipenem, 24 h): 5269 DPM/mg
- MEAN incorporation of 3H-glycine ([1]; Example 8, 48 μg/ml imipenem, 48 h): 5316 DPM/mg
- MEAN incorporation of 3H-glycine ([1]; Example 8, 72 μg/ml imipenem, 24 h): 6897 DPM/mg
- MEAN incorporation of 3H-glycine ([1]; Example 8, 72 μg/ml imipenem, 48 h): 7198 DPM/mg
- MEAN incorporation of 3H-glycine ([1]; Example 8, 96 μg/ml imipenem, 24 h): 5885 DPM/mg
- MEAN incorporation of 3H-glycine ([1]; Example 8, 96 μg/ml imipenem, 48 h): 6526 DPM/mg
- antibacterial activity (in words) (bacteria): active against most aerobic gram-positive and gram-negative bacteria and most anaerobic gram-positive and gram-negative bacteria
- viability (in vitro; 12 μg/ml imipenem + rifampin 10 μg/ml): 86%
- viability (in vitro; 24 μg/ml imipenem + rifampin 10 μg/ml): 90%
- viability (in vitro; 48 μg/ml imipenem + rifampin 10 μg/ml): 104%

Compound: CO[C@H]1/C=C/O[C@@]2(C)Oc3c(C)c(O)c4c(O)c(c(/C=N/N5CCN(C)CC5)c(O)c4c3C2=O)NC(=O)/C(C)=C\C=C\[C@H](C)[C@H](O)[C@@H](C)[C@@H](O)[C@@H](C)[C@H](OC(C)=O)[C@@H]1C [Rifampin, rifampin]
- percent of control ([1]; 10 μg/ml rifampin): 96% and 110% and 91% and 75% and 73% and 114%
- percent of control ([1]; 30 μg/ml rifampin): 94%
- activity at 10 µg/mL ([4]; 10 μg/ml rifampin): 93%
- activity at 30 µg/mL ([4]; 30 μg/ml rifampin): 80%
- activity at 100 µg/mL ([4]; 100 μg/ml rifampin): 42%

Compound: OC(Cn1cncn1)(Cn1cncn1)c1ccc(F)cc1F [Fluconazole, fluconazole]
- viability after treatment (in words) ([1]; Example 1, 100 μg/ml fluconazole added): not harmful to the tissue
- surviving yeast, Tube B ([2]; 24 hr): 31 colonies
- surviving yeast, Tube B ([2]; 48 hr): 45 colonies
- fungicidal activity (in words) [2]: suggests a tolerance or static phenomenon
- fungicidal activity (in words) (yeast isolates): did not affect the fungicidal activity greatly
- antiyeast activity at doses which maintain tissue viability (in words) (yeast isolates): Neither amphotericin B, nor fluconazole, alone substantially inhibits yeast growth at doses which substantially maintain tissue viability

Compound: CCN[C@@H]1C[C@H](N)[C@@H](O[C@H]2OC(CN)=CC[C@H]2N)[C@H](O)[C@H]1O[C@H]1OC[C@](C)(O)[C@H](NC)[C@H]1O [Netilmicin, netilmicin]
- AVG incorporation of 3H-glycine ([1]; 20 μg/ml netilmicin, 24 hours): 4213 DPM/mg
- AVG incorporation of 3H-glycine ([1]; 30 μg/ml netilmicin, 24 hours): 6805 DPM/mg
- AVG incorporation of 3H-glycine ([1]; 50 μg/ml netilmicin, 24 hours): 5815 DPM/mg
- antibacterial activity (in words) (bacteria): effective against many aerobic gram-negative bacteria and some aerobic gram-positive bacteria
- lack of antibacterial activity (in words) (bacteria): inactive against most streptococci and most anaerobic bacteria
- fungicidal activity (in words) (yeast isolates): did not have any adverse effects on the fungicidal activity of fluoconazole and amphotericin B

Compound: CN[C@H](CC(C)C)C(=O)N[C@H]1C(=O)N[C@@H](CC(N)=O)C(=O)N[C@H]2C(=O)N[C@H]3C(=O)N[C@H](C(=O)N[C@H](C(=O)O)c4cc(O)cc(O)c4-c4cc3ccc4O)[C@H](O)c3ccc(c(Cl)c3)Oc3cc2cc(c3O[C@@H]2O[C@H](CO)[C@@H](O)[C@H](O)[C@H]2O[C@H]2C[C@](C)(N)[C@H](O)[C@H](C)O2)Oc2ccc(cc2Cl)[C@H]1O [Vancomycin, vancomycin]
- antibacterial activity (in words) (bacteria): active against many gram-positive organisms, including staphylococci, streptococci, enterococci, Clostridium and Corynebacterium
- lack of antibacterial activity (in words) (bacteria): inactive against gram-negative bacteria
